Values of other authors in patent US20130172299A1, “Combination Therapy for Treatment of Bone and Mineral Disorders for Patients with Impaired Renal Function” (priority 2008, published 2013).

How the values were obtained:
[1] = hemodialysis patients

SMILES	inflammation in ESRD (300 mg po qd for 14 days)	serious adverse events (300 mg po qd, 15 patients treated for 14 days)	LDL cholesterol [1]	serum HDL cholesterol [1]	serum calcium levels [1]	serum phosphorous levels [1]
Cc1c(O)cc2c(c1C)O[C@](C)(CCC[C@H](C)CCC[C@H](C)CCCC(C)C)CC2 [Gamma tocopherol]	efficacy in reducing inflammation	no serious adverse events were reported	–	–	–	–
NC(=O)c1cccnc1 [nicotinamide]	–	–	decreased	increased	did not change	significantly reduced
